The test concerns the target TRPA1 (Homo sapiens, UniProt O75762). The test is described as follows: calcium flux in TRPA1-overexpressing HEK-293 cells. The test is classed as cell-based. (In general: Calcium flux is commonly read through the fluorescence of an indicator in the cells.)

As a reminder, the EC50 is the midpoint of the concentration-response curve.

Sequence of TRPA1 (O75762 whole entry): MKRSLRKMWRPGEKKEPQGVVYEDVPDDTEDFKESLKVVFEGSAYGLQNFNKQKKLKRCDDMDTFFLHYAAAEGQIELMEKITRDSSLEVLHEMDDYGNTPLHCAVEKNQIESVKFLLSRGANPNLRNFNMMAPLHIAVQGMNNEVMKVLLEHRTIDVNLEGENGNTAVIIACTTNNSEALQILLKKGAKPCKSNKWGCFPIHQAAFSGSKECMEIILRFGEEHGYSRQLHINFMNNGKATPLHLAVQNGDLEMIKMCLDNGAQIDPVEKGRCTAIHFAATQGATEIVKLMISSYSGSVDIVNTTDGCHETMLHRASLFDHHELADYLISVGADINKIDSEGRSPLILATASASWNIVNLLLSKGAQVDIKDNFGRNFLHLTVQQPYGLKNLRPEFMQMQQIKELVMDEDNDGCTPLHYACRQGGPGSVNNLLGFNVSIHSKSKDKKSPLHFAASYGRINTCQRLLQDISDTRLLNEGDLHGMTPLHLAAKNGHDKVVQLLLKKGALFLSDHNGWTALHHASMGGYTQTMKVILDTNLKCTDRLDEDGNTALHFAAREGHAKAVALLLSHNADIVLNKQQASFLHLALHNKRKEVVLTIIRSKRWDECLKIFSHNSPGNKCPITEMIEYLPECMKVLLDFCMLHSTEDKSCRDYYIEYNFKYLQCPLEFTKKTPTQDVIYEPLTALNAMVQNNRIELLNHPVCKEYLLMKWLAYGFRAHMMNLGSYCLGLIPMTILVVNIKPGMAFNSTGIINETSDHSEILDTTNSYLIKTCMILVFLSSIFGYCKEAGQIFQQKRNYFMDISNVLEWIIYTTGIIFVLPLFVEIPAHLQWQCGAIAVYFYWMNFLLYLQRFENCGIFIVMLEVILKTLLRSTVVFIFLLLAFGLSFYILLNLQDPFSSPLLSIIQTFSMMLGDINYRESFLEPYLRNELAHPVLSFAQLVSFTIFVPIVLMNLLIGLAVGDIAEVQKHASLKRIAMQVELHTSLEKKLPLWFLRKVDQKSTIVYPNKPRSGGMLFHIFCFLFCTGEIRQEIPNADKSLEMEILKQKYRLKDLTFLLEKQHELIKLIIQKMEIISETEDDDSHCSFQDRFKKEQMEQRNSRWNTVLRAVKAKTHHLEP

Regarding `CC(C)(C)c1ccc(O)c(C(C)(C)C)c1` [2,4-DTBP], the EC50 is 225 µM.

The values above are taken from PMC9939319 (Acta Pharmaceutica Sinica. B, 2022).
